Reference: patent US20040001827A1, “Serum albumin binding peptides for tumor targeting” (priority 2002, published 2004)
Where two headings read alike, the source gives them in different places. Where a SMILES comes first, the peptide text is derived from it. Bridges are numbered along the chain shown (N, C = ends).

Biological target: T1, rabbit albumin (Oryctolagus cuniculus, UniProt P49065)
T1 construct: purchased Sigma, St. Louis Mo
Test: SA08b binding (peptide competition) assay, rabbit albumin
Conditions: for improvement in IC50 relative to core sequence (SA34 and SA19): rabbit albumin
Source text: Plates were blocked as described above.
Peptides corresponding to identified phage sequences were synthesized and their affinity for rat, rabbit or mouse albumin measured using the SA08b binding assay.

T1 sequence (P49065 25-608): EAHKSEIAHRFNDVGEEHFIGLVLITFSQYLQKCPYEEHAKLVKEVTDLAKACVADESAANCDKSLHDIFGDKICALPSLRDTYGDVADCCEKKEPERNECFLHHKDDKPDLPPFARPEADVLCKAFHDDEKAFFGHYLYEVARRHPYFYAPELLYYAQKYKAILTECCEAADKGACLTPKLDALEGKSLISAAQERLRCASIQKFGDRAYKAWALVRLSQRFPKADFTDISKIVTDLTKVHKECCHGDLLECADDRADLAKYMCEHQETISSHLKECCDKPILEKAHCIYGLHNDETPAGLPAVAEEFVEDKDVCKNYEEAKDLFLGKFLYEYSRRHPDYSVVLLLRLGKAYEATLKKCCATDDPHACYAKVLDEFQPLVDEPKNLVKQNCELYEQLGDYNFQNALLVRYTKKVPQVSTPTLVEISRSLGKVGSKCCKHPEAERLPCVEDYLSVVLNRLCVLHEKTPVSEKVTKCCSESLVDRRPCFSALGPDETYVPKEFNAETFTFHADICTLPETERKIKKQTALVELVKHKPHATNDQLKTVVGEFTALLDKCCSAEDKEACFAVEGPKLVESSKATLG

In the case of `CC[C@H](C)[C@H](NC(=O)[C@H](CC(C)C)NC(=O)[C@H](CCCNC(=N)N)NC(C)=O)C(=O)N[C@@H](CCC(=O)O)C(=O)N[C@@H](CC(=O)O)C(=O)N[C@H](C(=O)N[C@H]1CSSC[C@@H](C(=O)N[C@@H](CC(C)C)C(=O)N[C@@H](Cc2c[nH]c3ccccc23)C(=O)N[C@@H](CCC(=O)O)C(=O)N[C@@H](CC(=O)O)C(N)=O)NC(=O)CNC(=O)[C@H](Cc2c[nH]c3ccccc23)NC(=O)[C@H](CCCNC(=N)N)NC(=O)[C@@H]2CCCN2C(=O)[C@H](CC(C)C)NC1=O)[C@@H](C)CC` [SA22] (Ac-RLIEDICLPRWGCLWED-NH2; disulfide 7-13), the “improvement in IC50 relative to core sequence (SA34 and SA19)” value is reported as 60 fold.

In the case of `CC[C@H](C)[C@H](NC(=O)[C@H](CC(=O)O)NC(C)=O)C(=O)N[C@H]1CSSC[C@@H](C(=O)N[C@@H](CC(C)C)C(=O)N[C@@H](Cc2c[nH]c3ccccc23)C(=O)N[C@@H](CCC(=O)O)C(=O)N[C@@H](CC(=O)O)C(N)=O)NC(=O)CNC(=O)[C@H](Cc2c[nH]c3ccccc23)NC(=O)[C@H](CCCNC(=N)N)NC(=O)[C@@H]2CCCN2C(=O)[C@H](CC(C)C)NC1=O` [SA26] (Ac-DICLPRWGCLWED-NH2; disulfide 3-9), the “improvement in IC50 relative to core sequence (SA34 and SA19)” value is reported as “about 8.6 fold”.

For `CC(=O)N[C@H]1CSSC[C@@H](C(=O)N[C@@H](CC(C)C)C(=O)N[C@@H](Cc2c[nH]c3ccccc23)C(=O)N[C@@H](CCC(=O)O)C(=O)N[C@@H](CC(=O)O)C(N)=O)NC(=O)CNC(=O)[C@H](Cc2c[nH]c3ccccc23)NC(=O)[C@H](CCCNC(=N)N)NC(=O)[C@@H]2CCCN2C(=O)[C@H](CC(C)C)NC1=O` [SA28] (Ac-CLPRWGCLWED-NH2; disulfide 1-7), the IC50 was over 400 µM.

In the case of `CC[C@H](C)[C@H](NC(=O)[C@H](CC(C)C)NC(=O)[C@H](CCCNC(=N)N)NC(C)=O)C(=O)N[C@@H](CCC(=O)O)C(=O)N[C@@H](CC(=O)O)C(=O)N[C@H](C(=O)N[C@H]1CSSC[C@@H](C(=O)N[C@@H](CC(C)C)C(N)=O)NC(=O)CNC(=O)[C@H](Cc2c[nH]c3ccccc23)NC(=O)[C@H](CCCNC(=N)N)NC(=O)[C@@H]2CCCN2C(=O)[C@H](CC(C)C)NC1=O)[C@@H](C)CC` [SA33] (Ac-RLIEDICLPRWGCL-NH2; disulfide 7-13), the “improvement in IC50 relative to core sequence (SA34 and SA19)” value is reported as “approximately 6 fold”.

For `CC[C@H](C)[C@H](NC(=O)[C@H](CC(=O)O)NC(C)=O)C(=O)N[C@H]1CSSC[C@@H](C(=O)N[C@@H](CC(C)C)C(N)=O)NC(=O)CNC(=O)[C@H](Cc2c[nH]c3ccccc23)NC(=O)[C@H](CCCNC(=N)N)NC(=O)[C@@H]2CCCN2C(=O)[C@H](CC(C)C)NC1=O` [SA34] (Ac-DICLPRWGCL-NH2; disulfide 3-9), the IC50 was about 25 µM.

With `CC[C@H](C)[C@H](NC(C)=O)C(=O)N[C@H]1CSSC[C@@H](C(N)=O)NC(=O)CNC(=O)[C@H](Cc2c[nH]c3ccccc23)NC(=O)[C@H](CCCNC(=N)N)NC(=O)[C@@H]2CCCN2C(=O)[C@H](CC(C)C)NC1=O` [SA36] (Ac-ICLPRWGC-NH2; disulfide 2-8) the IC50 (Table 9, rabbit albumin, peptide truncation series, read-out: IC50) was over 250 µM.
